Measured values taken from a compilation of properties of binary mixtures (doi:10.1007/s10953-023-01258-3).

Assay: xn = mol fraction of the nth substance listed
Conditions: 101 kPa

Cn1cc[n+](CCCN)c1.F[B-](F)(F)F + CS(C)=O
Conditions	electrical conductivity [S/m]	viscosity [mPa·s]
323.15 K, x1 = 0.2997	–	11.79
323.15 K, x1 = 0.3997	0.81	16.67
323.15 K, x1 = 0.5999	0.446	28.21
323.15 K, x1 = 0.7001	0.314	35.29
323.15 K, x1 = 0.8109	0.223	43.46
323.15 K, x1 = 0.8998	0.17	50.38
328.15 K, x1 = 0.2997	1.26	10.06
328.15 K, x1 = 0.4998	0.659	18.73
328.15 K, x1 = 0.5999	0.515	24.2
328.15 K, x1 = 0.7001	0.369	30.06
328.15 K, x1 = 0.8109	0.269	37.19
328.15 K, x1 = 0.8998	0.21	43.13
328.15 K, x1 = 1	0.159	50.12
333.15 K, x1 = 0.1003	2.3	2.79
333.15 K, x1 = 0.2	1.78	5.508
333.15 K, x1 = 0.3997	1.04	12.05
333.15 K, x1 = 0.4998	0.749	16.07
333.15 K, x1 = 0.5999	0.593	20.41
333.15 K, x1 = 0.7001	0.431	25.32
333.15 K, x1 = 0.8109	0.323	31.21
333.15 K, x1 = 0.8998	0.258	36.19
333.15 K, x1 = 1	0.203	42.31
338.15 K, x1 = 0.1003	2.53	2.4
338.15 K, x1 = 0.2	1.97	4.865
338.15 K, x1 = 0.2997	1.55	7.311
338.15 K, x1 = 0.4998	0.849	13.77
338.15 K, x1 = 0.5999	0.682	17.48
338.15 K, x1 = 0.7001	0.496	21.74
338.15 K, x1 = 0.8998	0.312	31.24
343.15 K, x1 = 0.2	2.17	4.241
343.15 K, x1 = 0.2997	1.71	6.401
343.15 K, x1 = 0.3997	1.3	8.856
343.15 K, x1 = 0.4998	0.948	11.78
343.15 K, x1 = 0.7001	0.572	19.03
343.15 K, x1 = 0.8109	0.449	23.52
343.15 K, x1 = 0.8998	0.374	27.44
343.15 K, x1 = 1	0.308	32.15
348.15 K, x1 = 0.1003	3.02	2.048
348.15 K, x1 = 0.2	2.37	3.722
348.15 K, x1 = 0.2997	1.88	5.565
348.15 K, x1 = 0.3997	1.46	7.954
348.15 K, x1 = 0.4998	1.07	10.3
348.15 K, x1 = 0.5999	0.877	13.38
348.15 K, x1 = 0.7001	0.656	16.16
348.15 K, x1 = 0.8109	0.524	20.12
348.15 K, x1 = 0.8998	0.445	23.5
348.15 K, x1 = 1	0.374	27.51
353.15 K, x1 = 0.1003	3.27	1.997
353.15 K, x1 = 0.2	2.58	3.564
353.15 K, x1 = 0.2997	2.07	5.199
353.15 K, x1 = 0.4998	1.19	9.541
353.15 K, x1 = 0.5999	0.978	12.09
353.15 K, x1 = 0.7001	0.749	14.98
353.15 K, x1 = 0.8109	0.608	18.65
353.15 K, x1 = 0.8998	0.522	21.71
353.15 K, x1 = 1	0.457	25.41
